Source: ChEMBL document CHEMBL6078655, “Engineering of Novel Analogues That Are More Receptor-Selective and Potent than the Native Hormone, Insulin-like Peptide 5 (INSL5)” (J Med Chem, 2024)
Active and inactive are the calls of the source. The calls are words filed in the database; no cut-off is given here. Where a SMILES comes first, the peptide text is derived from it. Bridges are numbered along the chain shown (N, C = ends). Roman numbers before positions name the chains, in order. [ ]: non-standard residue; d: D form. 1Nal = N[C@@H](Cc1cccc2ccccc12)C(=O)O; Agb = N=C(N)NCC[C@H](N)C(=O)O

Assays:
Relaxin-3 receptor 1 [1] = biological target: T1, Relaxin-3 receptor 1 (Homo sapiens, UniProt Q9NSD7); assay: Binding affinity to SmBit-tagged RXFP3 (unknown origin) expressed in HEK cells assessed as inhibition constant incubated for 1 hr by NanoBiT assay; assay type: cell-based
T1 sequence (Q9NSD7 whole entry): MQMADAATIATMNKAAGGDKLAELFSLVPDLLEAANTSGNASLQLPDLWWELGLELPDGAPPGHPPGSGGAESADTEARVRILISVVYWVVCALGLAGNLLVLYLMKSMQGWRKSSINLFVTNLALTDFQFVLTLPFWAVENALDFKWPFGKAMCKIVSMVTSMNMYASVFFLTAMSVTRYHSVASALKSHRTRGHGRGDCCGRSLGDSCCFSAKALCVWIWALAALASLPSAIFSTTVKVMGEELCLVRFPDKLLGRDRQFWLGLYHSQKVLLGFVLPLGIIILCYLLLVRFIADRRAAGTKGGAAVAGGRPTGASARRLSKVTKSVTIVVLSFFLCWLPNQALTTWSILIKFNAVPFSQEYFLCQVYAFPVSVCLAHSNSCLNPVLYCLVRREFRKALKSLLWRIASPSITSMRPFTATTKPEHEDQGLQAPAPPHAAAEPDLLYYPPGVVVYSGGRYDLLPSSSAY

[2] = biological target: T2, Relaxin-3 receptor 1 (Homo sapiens) (UniProt Q9NSD7); assay: (§1) Agonist activity at RXFP3 (unknown origin) expressed in CHO cells co-transfected with pCRE-galactosidase reporter plasmid assessed as inhibition of forskolin-induced cAMP accumulation incubated for 6 hrs by reporter gene assay; assay type: functional, cell-based
T2 sequence (whole entry): T1 sequence (Q9NSD7 whole entry)

Relaxin-3 receptor 2 [3] = biological target: T3, Relaxin-3 receptor 2 (Homo sapiens, UniProt Q8TDU9); assay: Binding affinity to LgBiT-tagged RXFP4 (unknown origin) expressed in HEK cells assessed as inhibition constant incubated for 1 hr by NanoBiT assay; assay type: cell-based
T3 sequence (Q8TDU9 whole entry): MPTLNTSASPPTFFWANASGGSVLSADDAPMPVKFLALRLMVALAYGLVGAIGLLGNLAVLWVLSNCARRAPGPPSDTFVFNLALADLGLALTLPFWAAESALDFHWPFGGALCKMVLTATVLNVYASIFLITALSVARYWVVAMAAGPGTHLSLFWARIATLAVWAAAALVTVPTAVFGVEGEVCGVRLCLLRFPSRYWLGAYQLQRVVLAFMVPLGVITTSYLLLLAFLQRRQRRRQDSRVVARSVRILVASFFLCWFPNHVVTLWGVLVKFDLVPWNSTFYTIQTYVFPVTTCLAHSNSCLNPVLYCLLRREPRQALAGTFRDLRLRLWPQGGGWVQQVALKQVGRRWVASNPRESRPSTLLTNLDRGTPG

Relaxin-3 receptor 2 [4] = biological target: T3, Relaxin-3 receptor 2; assay: Agonist activity at RXFP4 (unknown origin) expressed in CHO cells co-transfected with pCRE-galactosidase reporter plasmid assessed as inhibition of forskolin-induced cAMP accumulation incubated for 6 hrs by reporter gene assay; assay type: functional, cell-based
[5] = Selectivity index, ratio of Ki for binding affinity to SmBit-tagged RXFP3 (unknown origin) expressed in HEK cells assessed as inhibition constant to Ki for binding affinity to LgBiT-tagged RXFP4 (unknown origin) expressed in HEK cells assessed as inhibition constant; assay type: cell-based
Relaxin-3 receptor 2 [6] = biological target: T3, Relaxin-3 receptor 2; assay: Agonist activity at RXFP4 in HEK293T cells assessed as beta-arrestin2 recruitment pretreated with coelenterazine for 10 mins followed by compound addition by BRET assay; assay type: functional, cell-based
Relaxin-3 receptor 1 [7] = biological target: T1, Relaxin-3 receptor 1; assay: as §1; assay type: functional, cell-based
Relaxin-3 receptor 2 [8] = biological target: T3, Relaxin-3 receptor 2; assay: Antagonist activity at RXFP4 in HEK293T cells assessed as beta-arrestin2 recruitment pretreated with coelenterazine for 10 mins followed by compound addition by BRET assay; assay type: functional, cell-based

Ki (Relaxin-3 receptor 1 [1]; read-out: Ki)	Activity [2]	Ki (Relaxin-3 receptor 2 [3])	EC50 (Relaxin-3 receptor 2 [4]; read-out: EC50)	Ki (Relaxin-3 receptor 1 [1]; read-out: pKi (converted))	EC50 (Relaxin-3 receptor 2 [6])	EC50 (Relaxin-3 receptor 1 [7]; cho, read-out: EC50)	EC50 (Relaxin-3 receptor 1 [7]; read-out: pEC50 (converted))	EC50 (Relaxin-3 receptor 2 [4]; read-out: pEC50 (converted))	Activity (Relaxin-3 receptor 2 [8])	Compound	Ratio Ki [5]
589 nM	inactive	11.2 nM	17.8 nM							CC[C@H](C)[C@@H]1NC(=O)[C@H](Cc2ccc(O)cc2)NC(=O)[C@H]([C@@H](C)CC)NC(=O)[C@H](C(C)C)NC(=O)[C@H]([C@@H](C)O)NC(=O)[C@H](CCCNC(=N)N)NC(=O)[C@H]([C@@H](C)CC)NC(=O)[C@H](Cc2ccc(O)cc2)NC(=O)[C@H](CCC(=O)O)NC(=O)[C@H](CC(C)C)NC(=O)CNC(=O)[C@@H](N)CSSC[C@H](N)C(=O)N[C@@H]([C@@H](C)O)C(=O)N[C@@H](CC(=O)O)C(=O)NCC(=O)N[C@@H](CS)C(=O)N[C@H](CO)C(=O)N[C@@H](CCSC)C(=O)N[C@@H](CCCCN)C(=O)N[C@@H](CC(=O)O)C(=O)N[C@@H](CC(C)C)C(=O)N[C@@H](CO)C(=O)N[C@@H](C)C(=O)N[C@@H](CC(C)C)C(=O)N[C@H](C(=O)O)CSSC[C@@H](C(=O)N[C@@H](C)C(=O)NCC(=O)N[C@@H](CO)C(=O)N[C@@H](CCCNC(=N)N)C(=O)N[C@@H](Cc2c[nH]c3ccccc23)C(=O)O)NC1=O	52.5
195 nM	inactive	7.76 nM	7.94 nM	295 nM	61.7 nM					CC[C@H](C)[C@@H]1NC(=O)[C@H](Cc2ccc(O)cc2)NC(=O)[C@H]([C@@H](C)CC)NC(=O)[C@H](C(C)C)NC(=O)[C@H]([C@@H](C)O)NC(=O)[C@H](CCCNC(=N)N)NC(=O)[C@H]([C@@H](C)CC)NC(=O)[C@H](Cc2ccc(O)cc2)NC(=O)[C@H](CCC(=O)O)NC(=O)[C@H](CC(C)C)NC(=O)CNC(=O)[C@@H](NC(=O)[C@H](CC(C)C)NC(=O)[C@H](CCCNC(=N)N)NC(=O)[C@@H](NC(=O)[C@H](CO)NC(=O)[C@H](CCC(=O)O)NC(=O)[C@@H](N)CCCCN)C(C)C)CSSC[C@H](N)C(=O)N[C@@H]([C@@H](C)O)C(=O)N[C@@H](CC(=O)O)C(=O)NCC(=O)N[C@@H](CS)C(=O)N[C@H](CO)C(=O)N[C@@H](CCSC)C(=O)N[C@@H](CCCCN)C(=O)N[C@@H](CC(=O)O)C(=O)N[C@@H](CC(C)C)C(=O)N[C@@H](CO)C(=O)N[C@@H](C)C(=O)N[C@@H](CC(C)C)C(=O)N[C@H](C(=O)O)CSSC[C@@H](C(=O)N[C@@H](C)C(=O)N[C@@H](CO)C(=O)N[C@@H](CO)C(=O)N[C@@H](CCCNC(=N)N)C(=O)N[C@@H](Cc2c[nH]c3ccccc23)C(=O)O)NC1=O	38
2190 nM		1.32 nM			40.7 nM	> 10000 nM	> 10000 nM	9.12 nM	inactive	CC[C@H](C)[C@@H]1NC(=O)[C@H](Cc2ccc(O)cc2)NC(=O)[C@H]([C@@H](C)CC)NC(=O)[C@H](C(C)C)NC(=O)[C@H]([C@@H](C)O)NC(=O)[C@H](CCCNC(=N)N)NC(=O)[C@H]([C@@H](C)CC)NC(=O)[C@H](Cc2ccc(O)cc2)NC(=O)[C@H](CCC(=O)O)NC(=O)[C@H](CC(C)C)NC(=O)CNC(=O)[C@@H](N)CSSC[C@H](N)C(=O)N[C@@H]([C@@H](C)O)C(=O)N[C@@H](CC(=O)O)C(=O)NCC(=O)N[C@@H](C)C(=O)N[C@@H](CO)C(=O)N[C@@H](CCSC)C(=O)N[C@@H](CCCCN)C(=O)N[C@@H](CC(=O)O)C(=O)N[C@@H](CC(C)C)C(=O)N[C@@H](CO)C(=O)N[C@@H](C)C(=O)N[C@@H](CC(C)C)C(=O)N[C@H](C(=O)O)CSSC[C@@H](C(=O)NCC(=O)NCC(=O)N[C@@H](CO)C(=O)N[C@@H](CCNC(=N)N)C(=O)N[C@@H](Cc2cccc3ccccc23)C(=O)O)NC1=O (I: H-CGLEYIRTVIYICGGS[Agb][1Nal]-OH / II: H-CTDGASMKDLSALC-OH; disulfide I:1-II:1, I:13-II:14)	1660
